Laboratory results published in PubChem BioAssay (NCI).
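Compound exposure: 48 hours, 5 concentrations, 96-well plates. Definition used: TGI = concentration required for complete inhibition of growth.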

How the values were obtained:
Assay in all cases: NCI tumour cell line growth inhibition, 48 h
SF-295 CNS = test system: SF-295 CNS
HL-60(TB) leukemia = test system: HL-60(TB) leukemia
HT29 colon = test system: HT29 colon
ACHN renal = test system: ACHN renal
DU-145 prostate = test system: DU-145 prostate
LOX IMVI melanoma = test system: LOX IMVI melanoma
UACC-257 melanoma = test system: UACC-257 melanoma
SN12C renal = test system: SN12C renal
MDA-MB-435 = test system: MDA-MB-435
SK-OV-3 ovarian = test system: SK-OV-3 ovarian
UACC-62 melanoma = test system: UACC-62 melanoma
SF-539 CNS = test system: SF-539 CNS
OVCAR-4 ovarian = test system: OVCAR-4 ovarian
A549 NSCLC = test system: A549 NSCLC
NCI/ADR-RES ovarian = test system: NCI/ADR-RES ovarian
OVCAR-3 ovarian = test system: OVCAR-3 ovarian
SK-MEL-28 melanoma = test system: SK-MEL-28 melanoma
K-562 leukemia = test system: K-562 leukemia
COLO 205 colon = test system: COLO 205 colon
NCI-H226 lung = test system: NCI-H226 lung
MDA-MB-231 breast = test system: MDA-MB-231 breast
A498 renal = test system: A498 renal
NCI-H23 lung = test system: NCI-H23 lung
MALME-3M melanoma = test system: MALME-3M melanoma
HS 578T breast = test system: HS 578T breast
MOLT-4 leukemia = test system: MOLT-4 leukemia
SK-MEL-2 melanoma = test system: SK-MEL-2 melanoma
786-0 renal = test system: 786-0 renal
OVCAR-8 ovarian = test system: OVCAR-8 ovarian
HCC-2998 colon = test system: HCC-2998 colon
TK-10 renal = test system: TK-10 renal
SW-620 colon = test system: SW-620 colon
CCRF-CEM leukemia = test system: CCRF-CEM leukemia
KM12 colon = test system: KM12 colon
SNB-19 CNS = test system: SNB-19 CNS
PC-3 prostate = test system: PC-3 prostate
MCF7 breast = test system: MCF7 breast
U251 CNS = test system: U251 CNS
HCT-15 colon = test system: HCT-15 colon
HOP-62 NSCLC = test system: HOP-62 NSCLC
T-47D breast = test system: T-47D breast
RPMI-8226 leukemia = test system: RPMI-8226 leukemia
SF-268 CNS = test system: SF-268 CNS
HCT-116 colon = test system: HCT-116 colon
CAKI-1 renal = test system: CAKI-1 renal
OVCAR-5 ovarian = test system: OVCAR-5 ovarian
M14 melanoma = test system: M14 melanoma
NCI-H460 lung = test system: NCI-H460 lung
NCI-H522 lung = test system: NCI-H522 lung
BT-549 breast = test system: BT-549 breast
EKVX NSCLC = test system: EKVX NSCLC
UO-31 renal = test system: UO-31 renal
IGROV1 ovarian = test system: IGROV1 ovarian
RXF 393 renal = test system: RXF 393 renal
SK-MEL-5 melanoma = test system: SK-MEL-5 melanoma
SR leukemia = test system: SR leukemia
SNB-75 CNS = test system: SNB-75 CNS

`Cc1cc(CCC(=O)NCCNc2c3ccccc3nc3ccccc23)cc(C)c1O[Si](C)(C)C(C)(C)C` was tested, and the TGI (SF-295 CNS) was 2.27 µM, the TGI (HL-60(TB) leukemia) was 3.16 µM and the TGI (HT29 colon) was 1.71 µM. For the same molecule, the TGI (ACHN renal) was 3.05 µM, the TGI (DU-145 prostate) was 2.63 µM and the TGI (LOX IMVI melanoma) was 0.29 µM. It also gave a TGI (UACC-257 melanoma) of 3.51 µM, a TGI (SN12C renal) of 28.8 µM and a TGI (MDA-MB-435) of 1.04 µM. For the same molecule, the TGI (SK-OV-3 ovarian) was 3.01 µM, the TGI (UACC-62 melanoma) was 27.6 µM and the TGI (SF-539 CNS) was 0.377 µM. The TGI (OVCAR-4 ovarian) was 2.67 µM, the TGI (A549 NSCLC) was 1.99 µM and the TGI (NCI/ADR-RES ovarian) was 4.44 µM. It also gave a TGI (OVCAR-3 ovarian) of 3.57 µM, a TGI (SK-MEL-28 melanoma) of 3.37 µM and a TGI (K-562 leukemia) of 0.826 µM. It also gave a TGI (COLO 205 colon) of 2.23 µM, a TGI (NCI-H226 lung) of 33.4 µM and a TGI (MDA-MB-231 breast) of 25.8 µM. The TGI (A498 renal) was 2.02 µM.

`C/C=C/c1cc2c(cc1O)CC[C@@H]1[C@@H]2CC[C@]2(C)[C@@H](O)CC[C@@H]12` showed a TGI (NCI-H23 lung) of 4.62 µM, a TGI (SF-295 CNS) of 14.2 µM and a TGI (HT29 colon) of 20.4 µM. The TGI (MALME-3M melanoma) was 23.1 µM, the TGI (HS 578T breast) was 22.3 µM and the TGI (MOLT-4 leukemia) was 15.8 µM. It also gave a TGI (ACHN renal) of 15.5 µM, a TGI (DU-145 prostate) of 3.05 µM and a TGI (SK-MEL-2 melanoma) of 16.7 µM. For the same molecule, the TGI (LOX IMVI melanoma) was 24.3 µM, the TGI (786-0 renal) was 13.8 µM and the TGI (OVCAR-8 ovarian) was 18.1 µM. It also gave a TGI (UACC-257 melanoma) of 22.4 µM, a TGI (HCC-2998 colon) of 7.13 µM and a TGI (TK-10 renal) of 27.3 µM. For the same molecule, the TGI (SN12C renal) was 20.5 µM, the TGI (SW-620 colon) was 19 µM and the TGI (CCRF-CEM leukemia) was 8.44 µM. It also gave a TGI (KM12 colon) of 13.4 µM, a TGI (SNB-19 CNS) of 14.9 µM and a TGI (PC-3 prostate) of 23 µM. The TGI (MDA-MB-435) was 0.0948 µM, the TGI (MCF7 breast) was 1.28 µM and the TGI (U251 CNS) was 13 µM. It also gave a TGI (HCT-15 colon) of 18 µM, a TGI (HOP-62 NSCLC) of 16.3 µM and a TGI (T-47D breast) of 41.7 µM. The TGI (SK-OV-3 ovarian) was 15.3 µM, the TGI (UACC-62 melanoma) was 15.4 µM and the TGI (RPMI-8226 leukemia) was > 82.6 µM. It also gave a TGI (SF-539 CNS) of 0.15 µM, a TGI (SF-268 CNS) of 21.5 µM and a TGI (HCT-116 colon) of 5.17 µM. For the same molecule, the TGI (OVCAR-4 ovarian) was 27.2 µM, the TGI (A549 NSCLC) was 15.9 µM and the TGI (CAKI-1 renal) was 21.1 µM. The TGI (OVCAR-5 ovarian) was 25.4 µM, the TGI (M14 melanoma) was 4.05 µM and the TGI (NCI-H460 lung) was 14.3 µM. For the same molecule, the TGI (NCI-H522 lung) was 0.117 µM, the TGI (BT-549 breast) was 22.8 µM and the TGI (OVCAR-3 ovarian) was 2.24 µM. For the same molecule, the TGI (EKVX NSCLC) was 24.7 µM, the TGI (UO-31 renal) was 18.5 µM and the TGI (IGROV1 ovarian) was 19 µM. The TGI (RXF 393 renal) was 1.3 µM, the TGI (SK-MEL-28 melanoma) was 21.6 µM and the TGI (SK-MEL-5 melanoma) was 14.2 µM. The TGI (SR leukemia) was > 19.6 µM, the TGI (K-562 leukemia) was 15.7 µM and the TGI (COLO 205 colon) was 24.4 µM. It also gave a TGI (NCI-H226 lung) of 1.96 µM, a TGI (MDA-MB-231 breast) of 4.94 µM and a TGI (SNB-75 CNS) of 3.48 µM. It also gave a TGI (A498 renal) of 6.11 µM.
